Laboratory results: patent US20020019387A1, “Vitronectin receptor antagonist” (SmithKline Beecham Corporation, priority 1997, published 2002)

Molecular target: T1, αvβ3 (vitronectin receptor) (Homo sapiens, UniProt P05106+P06756)
T1 construct: Human placenta or human platelet αvβ3 (0.1-0.3 mg/mL) in buffer T; from tissue; host or cells: human placenta or human platelets
Test: Solid-Phase [3H]-SK&F-107260 Binding to αvβ3
Conditions: read-out: concentration at which the compound inhibits vitronectin binding to SK&F 107260
Procedure: Solid-Phase [^3H]-SK&F-107260 Binding to αvβ3: Human placenta or human platelet αvβ3 (0.1-0.3 mg/mL) in buffer T (containing 2 mM CaCl2 and 1% octylglucoside) was diluted with buffer T containing 1 mM CaCl2, 1 mM MnCl2, 1 mM MgCl2 (buffer A) and 0.05% NaN3, and then immediately added to 96-well ELISA plates (Corning, New York, N.Y.) at 0.1 mL per well. 0.1-0.2 μg of αvβ3 was added per well. The plates were incubated overnight at 4° C. At the time of the experiment, the wells were washed once with buffer A and were incubated with 0.1 mL of 3.5% bovine serum albumin in the same buffer for 1 hr at room temperature. Following incubation the wells were aspirated completely and washed twice with 0.2 mL buffer A. […]
The plates were incubated for 1 hr at room temperature. […] The receptors were solubilized with 0.1 mL of 1% SDS and the bound [^3H]-SK&F-107260 was determined by liquid scintillation counting with the addition of 3 mL Ready Safe in a Beckman LS Liquid Scintillation Counter, with 40% efficiency. Nonspecific binding of [^3H]-SK&F-107260 was determined in the presence of 2 μM SK&F-107260 and was consistently less than 1% of total radioligand input. […] The Ki (dissociation constant of the antagonist) was calculated according to the equation: Ki=IC50/(1+L/Kd), where L and Kd were the concentration and the dissociation constant of [^3H]-SK&F-107260, respectively.

T1 sequence (P06756 31-889 limits assumed): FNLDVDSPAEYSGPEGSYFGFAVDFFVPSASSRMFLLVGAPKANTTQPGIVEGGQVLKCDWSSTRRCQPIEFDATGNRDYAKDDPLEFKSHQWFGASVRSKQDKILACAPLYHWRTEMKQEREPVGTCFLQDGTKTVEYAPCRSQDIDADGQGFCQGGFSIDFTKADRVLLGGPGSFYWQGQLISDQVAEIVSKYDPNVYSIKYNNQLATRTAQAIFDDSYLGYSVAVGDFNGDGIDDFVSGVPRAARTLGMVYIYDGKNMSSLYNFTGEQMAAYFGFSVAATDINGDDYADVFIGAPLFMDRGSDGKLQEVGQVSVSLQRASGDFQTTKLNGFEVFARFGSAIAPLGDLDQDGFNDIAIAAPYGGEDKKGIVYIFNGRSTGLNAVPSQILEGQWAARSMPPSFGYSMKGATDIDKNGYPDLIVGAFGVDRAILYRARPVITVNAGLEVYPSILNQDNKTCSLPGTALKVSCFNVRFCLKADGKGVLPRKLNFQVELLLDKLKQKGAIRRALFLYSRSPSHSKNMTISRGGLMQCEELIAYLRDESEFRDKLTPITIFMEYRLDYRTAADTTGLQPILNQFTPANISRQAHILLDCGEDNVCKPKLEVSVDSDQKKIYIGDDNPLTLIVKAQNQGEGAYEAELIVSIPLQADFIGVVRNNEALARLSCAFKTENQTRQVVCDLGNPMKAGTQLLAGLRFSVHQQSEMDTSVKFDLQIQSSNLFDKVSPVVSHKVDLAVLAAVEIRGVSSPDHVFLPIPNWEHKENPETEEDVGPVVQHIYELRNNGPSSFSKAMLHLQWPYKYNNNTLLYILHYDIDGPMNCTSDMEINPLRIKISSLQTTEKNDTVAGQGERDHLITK
T1 sequence (P06756 891-1048 partner limits assumed): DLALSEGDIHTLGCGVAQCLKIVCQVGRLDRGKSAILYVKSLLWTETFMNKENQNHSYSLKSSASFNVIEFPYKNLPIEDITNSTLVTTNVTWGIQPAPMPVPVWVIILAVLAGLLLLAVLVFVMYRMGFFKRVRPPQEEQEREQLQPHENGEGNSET
T1 sequence (P05106 27-788): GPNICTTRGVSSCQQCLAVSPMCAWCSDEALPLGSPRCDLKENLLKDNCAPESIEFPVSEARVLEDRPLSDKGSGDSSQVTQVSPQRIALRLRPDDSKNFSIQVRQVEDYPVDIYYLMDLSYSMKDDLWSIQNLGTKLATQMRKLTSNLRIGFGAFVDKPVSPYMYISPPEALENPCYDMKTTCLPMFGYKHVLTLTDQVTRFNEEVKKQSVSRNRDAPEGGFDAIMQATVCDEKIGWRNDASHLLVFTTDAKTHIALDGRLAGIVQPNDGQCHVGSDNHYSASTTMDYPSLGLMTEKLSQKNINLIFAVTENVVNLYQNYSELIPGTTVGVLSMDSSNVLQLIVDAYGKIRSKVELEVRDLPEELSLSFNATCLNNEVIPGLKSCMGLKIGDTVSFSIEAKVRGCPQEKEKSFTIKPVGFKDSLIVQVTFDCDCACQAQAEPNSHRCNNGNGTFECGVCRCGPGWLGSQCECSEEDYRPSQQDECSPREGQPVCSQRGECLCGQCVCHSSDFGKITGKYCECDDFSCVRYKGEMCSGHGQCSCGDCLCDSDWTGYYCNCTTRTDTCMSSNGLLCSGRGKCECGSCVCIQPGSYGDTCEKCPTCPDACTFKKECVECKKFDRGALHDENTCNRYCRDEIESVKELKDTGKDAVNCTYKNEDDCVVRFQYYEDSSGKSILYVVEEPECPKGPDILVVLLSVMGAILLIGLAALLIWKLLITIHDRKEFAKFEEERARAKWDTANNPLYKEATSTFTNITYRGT

IC50: ~3 nM
SMILES: O=C(O)C[C@@H]1Cc2ccc(OCCCNc3ccccn3)cc2CN(Cc2ccc(F)c(F)c2F)C1=O [Example 1, (S)-3-oxo-8-[3-(pyridin-2-ylamino)-1-propyloxy]-2-(2,3,4-trifluorobenzyl)-2,3,4,5-tetrahydro-1H-2-benzazepine-4-acetic acid]
